The values below come from patent US10858425B2, “Pan-ELR+ CXC chemokine antibodies” (Eli Lilly and Company, priority 2013, dated 2020).

In test [1] the test system is SKOV3-Luc ovarian cancer cells. Put plainly: SKOV3-Luc ovarian cancer xenograft model. The format is in vivo, athymic nude female mice. The protocol: SKOV3-Luc is a human ovary cancer cell line that expresses firefly luciferase gene. SKOV3-Luc cells are often used in vivo to establish human ovarian adenocarcinoma tumor growth.
SKOV3-Luc ovarian cancer cells were mixed 1:1 with matrigel and implanted subcutaneously in the right rear flank of athymic nude female mice at 3.0×10^6 cells per injection. Mice were randomized into 4 groups at baseline according to tumor volume after the xenografts were grown to an average tumor volume of 200 mm^3. Mice received either control IgG4 antibody (2.5 mg/kg once a week), cisplatin (2.5 mg/kg once a week), Antibody 1 (20 mg/kg once a week), or a combination of cisplatin (2.5 mg/kg once a week) and Antibody 1 (20 mg/kg once a week) by intraperitoneal injection.

Test [2] has as its target T1, human CXCR2 (U937-huCXCR2 cells) (Homo sapiens, UniProt P25025).
T1 construct: expressed in transfected cells; host or cells: U937 monocytic cell line, retrovirally transduced
T1 sequence (P25025 1-360): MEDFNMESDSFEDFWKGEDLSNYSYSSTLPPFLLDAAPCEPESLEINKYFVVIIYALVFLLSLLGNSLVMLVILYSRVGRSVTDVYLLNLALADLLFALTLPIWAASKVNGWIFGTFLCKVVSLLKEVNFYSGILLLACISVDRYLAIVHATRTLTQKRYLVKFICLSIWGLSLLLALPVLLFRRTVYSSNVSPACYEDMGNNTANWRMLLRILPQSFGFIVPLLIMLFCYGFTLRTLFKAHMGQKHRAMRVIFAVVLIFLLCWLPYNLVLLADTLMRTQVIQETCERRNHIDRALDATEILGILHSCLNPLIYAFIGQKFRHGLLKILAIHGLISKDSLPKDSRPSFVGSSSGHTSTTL
Put plainly: U937-huCXCR2 FLIPR activity of human CXCL8 wild type and mutants. It counts as cell-based. Particulars: CXCL8 variant as ligand on U937-huCXCR2 cells. The procedure:
Wild type and mutant human CXCL8 are tested for biologic activity and for neutralization by Antibody 1 using the U937-huCXCR2 assay. U937-huCXCR2 is a monocytic cell line transduced with retrovirus for expression of human CXCR2. A description of the U937-huCXCR2 assay is found below under Neutralizing Assays.
CXCL8 mutants are serially diluted in Assay Buffer containing 0.2% BSA in wells of v-bottom 96-well polypropylene plates. Ligand concentrations are 3 times the final assay concentration (final assay concentrations range from 300 to 0.0051 nM). A cell plate and a ligand plate are loaded into a Fluorescent Imaging Plate Reader (FLIPR-3, Molecular Devices) programmed to transfer 50 μL of ligand to wells of the cell plate. Fluorescence is recorded at 1 second intervals for 90 seconds. The change in fluorescence [delta relative fluorescence units (DRFU), Max RFU-Min RFU] is calculated from images 10 to 90. DRFU versus log (ligand concentration) is plotted and EC50 values are determined by nonlinear regression using Graph Pad Prism. Assays are performed in triplicate over three assay plates.

Consider `N.N.[Cl][Pt][Cl]` [Cisplatin, cisplatin], for which the “Average Tumor Volume” value worked out at 122.65 mm^3 in test [1] (Day 14); 190.65 mm^3 in test [1] (Day 19); 289.15 mm^3 in test [1] (Day 22); 484.72 mm^3 in test [1] (Day 26); 806.31 mm^3 in test [1] (Day 32); 923.02 mm^3 in test [1] (Day 35). Also, the figures for the “Average Tumor Volume” value in test [1] (Day 40) and in test [1] (Day 43) were 941.42 mm^3 and 1047.34 mm^3, respectively. For the same molecule, in test [1] (compared to isotype control, intraperitoneal, once a week), the tumor growth inhibition result is on record as “did not show statistically significant tumor growth inhibition”.
As for “I40A: human CXCL8 point mutant I40A based on SEQ ID NO: 27 [Antibody I40A]”, the “U937 FLIPR activity EC50” value in test [2] is given as “Not Active”.
Same read-out and setting: for “I10A: human CXCL8 point mutant I10A based on SEQ ID NO: 27 [Antibody I10A]” the value was “Not Active”.
Turning to “R6A: human CXCL8 point mutant R6A based on SEQ ID NO: 27 [Antibody R6A]”, the “U937 FLIPR activity EC50” value in test [2] is on record as “Not Active”.
